Here are results for 30 compounds from patent US20240083857A1, “2-Methyl-Quinazolines” (Bayer Pharma Aktiengesellschaft, priority 2017, published 2024).

Assay [1] concerns the target human SOS1 (nucleotide exchange of K-Ras^G12C) (Homo sapiens, UniProt Q07889). The assay is described as follows: Biochemical assay 2: K-Ras^G12C activation assay by hSOS1 at high GTP concentration (HTRF). Conditions: high GTP; for IC50: read-out: Assay 2 (KRAS-Activation by SOS high GTP) activity expressed as IC50.
In assay [2] the target is human SOS1 (loading of human K-Ras^G12C-GDP with fluorescent GTP-analog) (Homo sapiens, UniProt Q07889). Put plainly: Biochemical assay 3: K-Ras^G12C activation assay by hSOS1 (HTRF). Particulars: no GTP; for IC50: read-out: Assay 3 (KRAS-Activation by SOS no GTP) activity expressed as IC50.

Each structure is given as a SMILES string.

`COc1cc2nc(C)nc(NC(C)c3csc4ccccc34)c2cc1OC` (stereo not drawn) [Example 27, N-[1-(1-benzothiophen-3-yl)ethyl]-6,7-dimethoxy-2-methylquinazolin-4-amine]: the figures for the IC50 in assay [1] and in assay [2] were 0.402 µM and 0.498 µM, respectively.

As for `COc1cc2nc(C)nc(N[C@H](C)c3cccc(-n4cccn4)c3)c2cc1OC` [Example 341, 6,7-dimethoxy-2-methyl-N-{(1R)-1-[3-(1H-pyrazol-1-yl)phenyl]ethyl}quinazolin-4-amine], the figures for the IC50 in assay [1] and in assay [2] were 3.73 µM and 12.2 µM, respectively.

Consider `COc1cc2nc(C)nc(NC(C)c3ccc(-c4ccccc4CNCc4ccccc4)s3)c2cc1OC` (stereo not drawn) [Example 365, N-[1-(5-{2-[(benzylamino)methyl]phenyl}thiophen-2-yl)ethyl]-6,7-dimethoxy-2-methylquinazolin-4-amine], for which the IC50 amounted to 0.299 µM in assay [1] and 0.353 µM in assay [2].

`CC[C@@H](O)c1ccccc1-c1ccc(C(C)Nc2nc(C)nc3cc(OC)c(OC)cc23)s1` (stereo partly drawn) [Example 349, (1R)-1-[2-(5-{1-[(6,7-dimethoxy-2-methylquinazolin-4-yl)amino]ethyl}thiophen-2-yl)phenyl]propan-1-ol]: the IC50 in assay [1] is 0.649 µM; in assay [2], 0.74 µM.

Turning to `COc1cc2nc(C)nc(NC(C)c3ccc(-c4ccccc4-c4cn[nH]c4)s3)c2cc1OC` (stereo not drawn) [Example 361, 6,7-dimethoxy-2-methyl-N-[1-{5-[2-(1H-pyrazol-4-yl)phenyl]thiophen-2-yl}ethyl]-quinazolin-4-amine], the IC50 in assay [1] was determined as 4.05 µM; in assay [2] it was 8.6 µM.

For the compound `Cc1nc(N[C@H](C)c2ccc(F)cc2)c2cc(N=S(C)(C)=O)ccc2n1` [Example 32, 6-{[dimethyl(oxido)-lambda6-sulfanylidene]amino}-N-[(1R)-1-(4-fluorophenyl)ethyl]-2-methylquinazolin-4-amine], the IC50 in assay [1] came to 1.4 µM; in assay [2], 2.59 µM.

As for `COc1cc2nc(C)nc(NC(C)c3c(C)nc4ccccn34)c2cc1OC` (stereo not drawn) [Example 26, 6,7-dimethoxy-2-methyl-N-[1-(2-methylimidazo[1,2-a]pyridin-3-yl)ethyl]quinazolin-4-amine], the inhibition at 20 µM in assay [1] (read-out: Assay 2 (KRAS-Activation by SOS high GTP) activity expressed as % inhibition at 20 μM, at 20 μM) is 52%. Besides, the IC50 in assay [2] was determined as 6.96 µM.

On to `COc1cc2nc(C)nc(N[C@H](C)c3cccc(-c4cn[nH]c4)c3)c2cc1OCc1ccccc1` [Example 344, 6-(benzyloxy)-7-methoxy-2-methyl-N-{(1R)-1-[3-(1H-pyrazol-4-yl)phenyl]ethyl}-quinazolin-4-amine], for which the half-inhibitory concentration (IC50) in assay [1] worked out at 1.19 µM; in assay [2], 1.86 µM.

With `CCCCNCc1ccccc1-c1ccc(C(C)Nc2nc(C)nc3cc(OC)c(OC)cc23)s1` (stereo not drawn) [Example 366, N-[1-(5-{2-[(butylamino)methyl]phenyl}thiophen-2-yl)ethyl]-6,7-dimethoxy-2-methylquinazolin-4-amine], the IC50 was determined as 0.0969 µM in assay [1] and 0.136 µM in assay [2].

On to `COc1cc2nc(C)nc(N[C@H](C)c3cccc(-c4cn[nH]c4)c3)c2cc1O` [Example 345, 7-methoxy-2-methyl-4-({(1R)-1-[3-(1H-pyrazol-4-yl)phenyl]ethyl}amino)quinazolin-6-ol], for which the values for the IC50 in assay [1] and in assay [2] were 7.84 µM and 29.4 µM, respectively.

In the case of `COc1cc2nc(C)nc(NC(C)c3ccc(-c4ccccc4[C@H](C)N)s3)c2cc1OC` (stereo in doubt) [Example 360, N-[1-(5-{2-[1-aminoethyl]phenyl}thiophen-2-yl)ethyl]-6,7-dimethoxy-2-methylquinazolin-4-amine], the 50% inhibitory concentration (IC50) worked out at 0.141 µM in assay [1] and 0.19 µM in assay [2].

For the compound `COc1cc2nc(C)nc(N[C@H](C)c3cccc(-c4ccc(O)nc4)c3)c2cc1OC` [Example 68, 5-(3-{(1R)-1-[(6,7-dimethoxy-2-methylquinazolin-4-yl)amino]ethyl}phenyl)pyridin-2-ol], the IC50 in assay [1] was determined as 0.486 µM; in assay [2], 0.471 µM.

`COc1cc2nc(C)nc(NC(C)c3ccc4c(c3)NC(=O)CO4)c2cc1OC` (stereo not drawn) [Example 34, 6-{1-[(6,7-dimethoxy-2-methylquinazolin-4-yl)amino]ethyl}-2H-1,4-benzoxazin-3(4H)-one]: the IC50 in assay [1] is 3.71 µM; in assay [2], 16.8 µM.

For the compound `COc1ccc2cc(C(C)Nc3nc(C)nc4cc(OC)c(OC)cc34)ccc2c1` (stereo not drawn) [Example 35, 6,7-dimethoxy-N-[1-(6-methoxy-2-naphthyl)ethyl]-2-methylquinazolin-4-amine], the IC50 in assay [1] amounted to 4.78 µM. Besides, the inhibition at 20 µM in assay [2] (read-out: Assay 3 (KRAS-Activation by SOS no GTP) activity expressed as % inhibition at 20 μM, at 20 μM) was determined as 48%.

For `COc1cc2nc(C)nc(NC(C)c3ccc(-c4ccccc4[C@@H](C)N)s3)c2cc1OC` (stereo in doubt) [Example 359, N-[1-(5-{2-[1-aminoethyl]phenyl}thiophen-2-yl)ethyl]-6,7-dimethoxy-2-methylquinazolin-4-amine], the IC50 stood at 0.2 µM in assay [1] and 0.299 µM in assay [2].

Consider `COc1cc2nc(C)nc(N[C@H](C)c3cccc(-c4cn[nH]c4)c3)c2cc1OCCC(C)C` [Example 351, 7-methoxy-2-methyl-6-(3-methylbutoxy)-N-{(1R)-1-[3-(1H-pyrazol-4-yl)phenyl]ethyl}quinazolin-4-amine], for which the IC50 worked out at 1.2 µM in assay [1] and 1.31 µM in assay [2].

With `COc1cc2nc(C)nc(NC(C)c3ccc4c(c3)CCCC4)c2cc1OC` (stereo not drawn) [Example 25, 6,7-dimethoxy-2-methyl-N-[1-(5,6,7,8-tetrahydronaphthalen-2-yl)ethyl]quinazolin-4-amine], the IC50 in assay [1] stood at 0.85 µM; in assay [2] it was 1.5 µM.

Regarding `Cc1nc(N[C@H](C)c2cccc(Cl)c2)c2cc(Br)ccc2n1` [Example 363, 6-bromo-N-[(1R)-1-(3-chlorophenyl)ethyl]-2-methylquinazolin-4-amine], the IC50 turned out to be 11.3 µM in assay [1] and 17.2 µM in assay [2].

For the compound `CCNCc1ccccc1-c1ccc(C(C)Nc2nc(C)nc3cc(OC)c(OC)cc23)s1` (stereo not drawn) [Example 367, N-[1-(5-{2-[(ethylamino)methyl]phenyl}thiophen-2-yl)ethyl]-6,7-dimethoxy-2-methylquinazolin-4-amine], the IC50 came out at 0.0613 µM in assay [1] and 0.099 µM in assay [2].

Consider `COc1cc2nc(C)nc(NC(C)c3ccc(-c4ccccc4[C@@H](C)NC(=O)OC(C)(C)C)s3)c2cc1OC` (stereo in doubt) [Example 358, tert-butyl {1-[2-(5-{1-[(6,7-dimethoxy-2-methylquinazolin-4-yl)amino]ethyl}thiophen-2-yl)phenyl]ethyl}carbamate], for which the IC50 in assay [1] is 1.53 µM; in assay [2], 2.45 µM.

Consider `COc1cc2nc(C)nc(N[C@H](C)c3ccc(-c4ccccc4CCN)s3)c2cc1OC` (stereo in doubt) [Example 357, N-[1-{5-[2-(2-aminoethyl)phenyl]thiophen-2-yl}ethyl]-6,7-dimethoxy-2-methylquinazolin-4-amine], for which the IC50 in assay [1] was 0.0488 µM; in assay [2], 0.0692 µM.

For `COc1cc2nc(C)nc(NC(C)c3cccc4c3CCO4)c2cc1OC` (stereo not drawn) [Example 22, N-[1-(2,3-dihydro-1-benzofuran-4-yl)ethyl]-6,7-dimethoxy-2-methylquinazolin-4-amine], the values for the IC50 in assay [1] and in assay [2] were 0.219 µM and 0.589 µM, respectively.

As for `COc1cc2nc(C)nc(NC(C)c3ccc4c(c3)OCO4)c2cc1OC` (stereo not drawn) [Example 23, N-[1-(1,3-benzodioxol-5-yl)ethyl]-6,7-dimethoxy-2-methylquinazolin-4-amine], the results for the IC50 in assay [1] and in assay [2] were 1.85 µM and 8.62 µM, respectively.

Take `COc1cc2nc(C)nc(NC(C)c3ccc(-c4ccccc4CNC4CCCC4)s3)c2cc1OC` (stereo not drawn) [Example 364, N-[1-(5-{2-[(cyclopentylamino)methyl]phenyl}thiophen-2-yl)ethyl]-6,7-dimethoxy-2-methylquinazolin-4-amine]: the IC50 in assay [1] turned out to be 0.158 µM; in assay [2] it was 0.217 µM.

As for `CCOc1cc2c(N[C@H](C)c3cccc(-c4cn[nH]c4)c3)nc(C)nc2cc1OC` [Example 355, 6-Ethoxy-7-methoxy-2-methyl-N-{(1R)-1-[3-(1H-pyrazol-4-yl)phenyl]ethyl}-quinazolin-4-amine], the IC50 in assay [1] was found to be 0.571 µM; in assay [2], 0.714 µM.

As for `COc1cc2nc(C)nc(NC(C)c3ccc(-c4ccccc4CCNC(=O)OC(C)(C)C)s3)c2cc1OC` (stereo not drawn) [Example 352, tert-butyl {2-[2-(5-{1-[(6,7-dimethoxy-2-methylquinazolin-4-yl)amino]ethyl}thiophen-2-yl)phenyl]ethyl}carbamate], the IC50 in assay [1] is 12.2 µM; in assay [2], 18.2 µM.

With `COc1cc2nc(C)nc(N[C@H](C)c3cccc(-c4cn[nH]c4)c3)c2cc1OCC1CC1` [Example 346, 6-(cyclopropylmethoxy)-7-methoxy-2-methyl-N-{(1R)-1-[3-(1H-pyrazol-4-yl)phenyl]ethyl}quinazolin-4-amine], the values for the IC50 in assay [1] and in assay [2] were 0.395 µM and 0.576 µM, respectively.

Regarding `COc1cc2nc(C)nc(NC(C)c3ccc4c(c3)CCO4)c2cc1OC` (stereo not drawn) [Example 24, N-[1-(2,3-dihydro-1-benzofuran-5-yl)ethyl]-6,7-dimethoxy-2-methylquinazolin-4-amine], the IC50 was determined as 1.22 µM in assay [1] and 2.45 µM in assay [2].

As for `COc1cc2nc(C)nc(N[C@H](C)c3cccc(Br)c3)c2cc1OCc1ccccc1` [Example 343, 6-(benzyloxy)-N-[(1R)-1-(3-bromophenyl)ethyl]-7-methoxy-2-methylquinazolin-4-amine], the figures for the IC50 in assay [1] and in assay [2] were 1.61 µM and 4.33 µM, respectively.

For `COc1cc2nc(C)nc(N[C@H](C)c3cccc(-c4cn[nH]c4)c3)c2cc1OCC1COC1` [Example 354, 7-methoxy-2-methyl-6-(oxetan-3-ylmethoxy)-N-{(1R)-1-[3-(1H-pyrazol-4-yl)phenyl]ethyl}quinazolin-4-amine], the IC50 was determined as 0.516 µM in assay [1] and 0.677 µM in assay [2].
